Measured values taken from patent US12029217B2, “Safened compositions comprising pyridine carboxylate herbicides and isoxadifen” (Corteva Agriscience LLC, priority 2018, dated 2024).

Tests used:
Type in all cases: in vivo
[1] = system: Lolium multiflorum (Italian ryegrass); assay: Greenhouse postemergence visual injury, Italian ryegrass (LOLMU)
Excerpt: (§1) Seeds of the desired test plant species were planted in a 90:10% v/v (volume/volume) mixture of PRO-MIX® BX (Premier Tech Horticulture, Quakertown, PA, USA) and PROFILE® GREENS GRADE™ (Profile Products LLC, Buffalo Grove, IL, USA) planting mixture, which typically has a pH of 5.2 to 6.2 and an organic matter content of at least 50 percent, in plastic pots with a surface area of 103.2 square centimeters (cm^2). When required to ensure good germination and healthy plants, a fungicide treatment and/or other chemical or physical treatment was applied. The plants were grown for 7-36 days (d) in a greenhouse with an approximate 14-hour (h) photo-period which was maintained at about 23° C. during the day and 22° C. during the night. Nutrients and water were added on a regular basis and supplemental lighting was provided with overhead metal halide 1000-Watt lamps as necessary. The plants were employed for testing when they reached the second or third true leaf stage.
(§2) Emulsifiable concentrates of each of each pyridine carboxylate herbicide (Compound A or Compound B) were prepared at 100 grams acid equivalent per liter (g ae/L). An aliquot of each emulsifiable concentrate was placed in a 25 mL glass vial and diluted with an aqueous mixture of 1.25% (v/v) ACTIROB® B esterified rapeseed oil (Bayer Crop Science, Research Triangle Park, NC, USA) or MSO® Concentrate with LECI-TECH® methylated soybean oil (Loveland Products, Loveland, CO, USA) to obtain concentrated stock solutions at the highest application rate for each herbicide, based upon a 12 milliliter (mL) application volume at a rate of 187 liters per hectare (L/ha). The concentrated stock solutions were further diluted with an aqueous mixture of 1.25% v/v ACTIROB® B or MSO® Concentrate with LECI-TECH® to obtain stock solutions at reduced application rates for each herbicide. Spray solutions of the herbicide combinations (Compound A or Compound B plus safener) were prepared by adding weighed amounts or aliquots of the safener to the stock solutions of Compound A or Compound B to form 12-mL spray solutions in two-way combinations.
(§3) The spray solutions were applied to the plant material with an overhead Mandel track sprayer equipped with 8002E nozzles calibrated to deliver 187 L/ha over an application area of 0.503 square meters (m^2) at a spray height of 18 inches (43 centimeters (cm)) above the average plant canopy. Control plants were sprayed in the same manner with the solvent blank. All herbicide (component a) application rates are given as “g ae/ha” and all safener (component b) application rates are given as “g ai/ha.”
(§4) The treated plants and control plants were placed in a greenhouse as described above and watered by sub-irrigation to prevent wash-off of the test compounds. After 20-22 d, the condition of the test plants as compared with that of the control plants was determined visually and scored on a scale of 0 to 100 percent where 0 corresponds to no injury and 100 corresponds to complete kill.

[2] = system: Helianthus annuus (common sunflower); assay: Greenhouse postemergence visual injury, common sunflower (HELAN)
Excerpt: as §1, §2, §3, §4

[3] = system: Erigeron canadensis (Canada horseweed); assay: Greenhouse postemergence visual injury, Canada horseweed (ERICA)
Excerpt: as §1, §2, §3, §4

[4] = system: Alopecurus myosuroides (blackgrass); assay: Greenhouse postemergence visual injury, blackgrass (ALOMY); conditions: Example 6
Excerpt: as §1, §2
(§5) The spray solutions were applied to the plant material with an overhead Mandel track sprayer equipped with 8002E nozzles calibrated to deliver 187 L/ha over an application area of 0.503 square meters (m^2) at a spray height of 18 inches (43 centimeters (cm)) above the average plant canopy. […]
as §4

[5] = system: Brassica napus (winter rape); assay: Greenhouse postemergence visual injury, winter rape (BRSNW)
Excerpt: as §1, §2, §3, §4

[6] = system: Abutilon theophrasti (velvetleaf); assay: Greenhouse postemergence visual injury, velvetleaf (ABUTH); conditions: Example 6
Excerpt: as §1, §2, §5, §4

[7] = system: Glycine max (soybean); assay: Greenhouse postemergence visual injury, soybean (GLXMA)
Excerpt: as §1, §2, §3, §4

[8] = system: Amaranthus retroflexus (pigweed); assay: Greenhouse postemergence visual injury, pigweed (AMARE)
Excerpt: as §1, §2, §3, §4

[9] = system: Triticum aestivum (spring wheat); assay: Greenhouse postemergence visual injury, spring wheat (TRZAS)
Excerpt: as §1, §2, §3, §4

[10] = system: Kochia scoparia (kochia); assay: Greenhouse postemergence visual injury, kochia (KCHSC); conditions: Example 6
Excerpt: as §1, §2, §5, §4

[11] = system: Ambrosia artemisiifolia (common ragweed); assay: Greenhouse postemergence visual injury, common ragweed (AMBEL); conditions: Example 7
Excerpt: as §1, §2, §5, §4

[12] = system: Ipomoea hederacea (ivyleaf morningglory); assay: Greenhouse postemergence visual injury, ivyleaf morningglory (IPOHE); conditions: Example 6
Excerpt: as §1, §2, §5, §4

[13] = system: Sorghum halepense (Johnson grass); assay: Greenhouse postemergence visual injury, Johnson grass (SORHA)
Excerpt: as §1, §2, §3, §4

[14] = system: Chenopodium album L. (common lambsquarters); assay: Greenhouse postemergence visual injury, common lambsquarters (CHEAL); conditions: Example 6
Excerpt: as §1, §2, §5, §4

[15] = system: Triticum aestivum (winter wheat); assay: Greenhouse postemergence visual injury, winter wheat (TRZAW)
Excerpt: as §1, §2, §3, §4

[16] = system: Cyperus esculentus (nutsedge); assay: Greenhouse postemergence visual injury, nutsedge (CYPES)
Excerpt: as §1, §2, §3, §4

[17] = system: Oryza sativa (common rice); assay: Greenhouse postemergence visual injury, rice (ORYSA); conditions: Example 6
Excerpt: as §1, §2, §5, §4

[18] = system: Amaranthus tamariscinus (common water hemp); assay: Greenhouse postemergence visual injury, common water hemp (AMATA); conditions: Example 7
Excerpt: as §1, §2, §5, §4

[19] = isoxadifen-ethyl 10 g/ha, Example 7
[20] = isoxadifen-ethyl 20 g/ha, Example 6
[21] = isoxadifen-ethyl 20 g/ha, Example 7
[22] = isoxadifen-ethyl 40 g/ha, Example 6
[23] = isoxadifen-ethyl 80 g/ha, Example 6
[24] = isoxadifen-ethyl 20 g/ha, Example 4
[25] = isoxadifen-ethyl 20 g/ha, Example 5
[26] = isoxadifen-ethyl 40 g/ha, Example 4
[27] = isoxadifen-ethyl 40 g/ha, Example 5
[28] = isoxadifen-ethyl 80 g/ha, Example 4
[29] = isoxadifen-ethyl 80 g/ha, Example 5
[30] = isoxadifen-ethyl 120 g/ha, Example 4
[31] = isoxadifen-ethyl 120 g/ha, Example 5
[32] = isoxadifen-ethyl 10 g/ha, Example 1
[33] = isoxadifen-ethyl 20 g/ha, Example 1
[34] = isoxadifen-ethyl 40 g/ha, Example 1
[35] = isoxadifen-ethyl 20 g/ha, Example 2
[36] = isoxadifen-ethyl 40 g/ha, Example 2
[37] = isoxadifen-ethyl 80 g/ha, Example 2
[38] = isoxadifen-ethyl 120 g/ha, Example 2

Measured: % visual injury, Ob

CCOC(=O)C1=NOC(c2ccccc2)(c2ccccc2)C1 [Isoxadifen-ethyl, isoxadifen-ethyl]
0%: [1]; [19] | [1]; [20] | [1]; [21] | [1]; [22] | [1]; [23] | [2]; [24] | [2]; [25] | [2]; [20] | [2]; [26] | [2]; [27] | [2]; [22] | [2]; [28] | [2]; [29] | [2]; [23] | [2]; [30] | [2]; [31] | [3]; [19] | [3]; [20] | [3]; [21] | [3]; [22] | [3]; [23] | [4]; isoxadifen-ethyl 20 g/ha | [4]; isoxadifen-ethyl 40 g/ha | [4]; isoxadifen-ethyl 80 g/ha | [5]; [32] | [5]; [33] | [5]; [20] | [5]; [34] | [5]; [22] | [5]; [23] | [6]; isoxadifen-ethyl 20 g/ha | [6]; isoxadifen-ethyl 40 g/ha | [6]; isoxadifen-ethyl 80 g/ha | [7]; [19] | [7]; [20] | [7]; [21] | [7]; [22] | [7]; [23] | [8]; [24] | [8]; [25] | [8]; [20] | [8]; [26] | [8]; [27] | [8]; [22] | [8]; [28] | [8]; [29] | [8]; [23] | [8]; [30] | [8]; [31] | [9]; [32] | [9]; [33] | [9]; [35] | [9]; [24] | [9]; [34] | [9]; [36] | [9]; [26] | [9]; [37] | [9]; [28] | [9]; [38] | [9]; [30] | [10]; isoxadifen-ethyl 20 g/ha | [10]; isoxadifen-ethyl 40 g/ha | [10]; isoxadifen-ethyl 80 g/ha | [11]; isoxadifen-ethyl 10 g/ha | [11]; isoxadifen-ethyl 20 g/ha | [12]; isoxadifen-ethyl 20 g/ha | [12]; isoxadifen-ethyl 40 g/ha | [12]; isoxadifen-ethyl 80 g/ha | [13]; [19] | [13]; [20] | [13]; [21] | [13]; [22] | [13]; [23] | [14]; isoxadifen-ethyl 20 g/ha | [14]; isoxadifen-ethyl 40 g/ha | [14]; isoxadifen-ethyl 80 g/ha | [15]; [35] | [15]; [20] | [15]; [36] | [15]; [22] | [15]; [37] | [15]; [23] | [15]; [38] | [16]; [24] | [16]; [25] | [16]; [20] | [16]; [26] | [16]; [27] | [16]; [22] | [16]; [28] | [16]; [29] | [16]; [23] | [16]; [30] | [16]; [31] | [17]; isoxadifen-ethyl 20 g/ha | [17]; isoxadifen-ethyl 40 g/ha | [17]; isoxadifen-ethyl 80 g/ha | [18]; isoxadifen-ethyl 10 g/ha | [18]; isoxadifen-ethyl 20 g/ha
